≈ marks a conversion by molar mass, not a printed value.

One assay concerns Mannheimia haemolytica MH 6357 (M7/2, reference strain, cattle infection strain). The experiment in a line: MIC, broth-microdilution (CLSI VET01-A4), strain MH 6357. Type of assay: cell-based. To be noted: Mannheimia haemolytica strain MH 6357, broth-microdilution; unit assumed. The procedure, abridged: (§1)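 Growth inhibition is scored visually on a doubling dilution series. The reported MIC corresponds to the lowest concentration free of turbidity, with results assessed under CLSI VET01-S3.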
`CC(C)(O)[C@H](NC(=O)c1ccc(C#Cc2ccc(CNCc3ccco3)s2)cc1)C(=O)NO` [Compound 298] had an MIC MH 6357 not above 0.1 µg/mL.

Regarding `CC(C)([C@H](NC(=O)c1ccc(C#Cc2ccc(CNCc3nccs3)cc2)cc1)C(=O)NO)S(C)(=O)=O` [C.274], the MIC MH 6357 was found to be 0.2 µg/mL (≈ 0.37 µM).

`COc1ccc(CNCc2ccc(C#Cc3ccc(C(=O)N[C@H](C(=O)NO)C(C)(C)SC)cc3)cc2)cc1` [Compound 240] returned an MIC MH 6357 of 1.6 µg/mL (≈ 3.01 µM).

In the case of `O=C(N[C@@H](CO)C(=O)NO)c1ccc(C#Cc2ccc(CNCC3CCCO3)cc2)cc1` (stereo partly shown) [Compound 162], the MIC MH 6357 was 6.3 µg/mL (≈ 14.4 µM).

The next assay deals with Mannheimia haemolytica MH 6374 (ATCC 33396, reference strain). The experiment in a line: MIC, broth-microdilution (CLSI VET01-A4), strain MH 6374. In kind it is cell-based. Particulars: Mannheimia haemolytica strain MH 6374, broth-microdilution; unit assumed. A digest of the protocol:
as §1
`CC(C)(O)[C@H](NC(=O)c1ccc(C#Cc2ccc(CNCc3ccco3)s2)cc1)C(=O)NO` [Compound 298] came in with an MIC MH 6374 of 0.2 µg/mL (≈ 0.428 µM).

Regarding `CC(C)([C@H](NC(=O)c1ccc(C#Cc2ccc(CNCc3nccs3)cc2)cc1)C(=O)NO)S(C)(=O)=O` [C.274], the MIC MH 6374 amounted to 0.2 µg/mL (≈ 0.37 µM).

`COc1ccc(CNCc2ccc(C#Cc3ccc(C(=O)N[C@H](C(=O)NO)C(C)(C)SC)cc3)cc2)cc1` [Compound 240] gave an MIC MH 6374 of 1.6 µg/mL (≈ 3.01 µM).

`O=C(N[C@@H](CO)C(=O)NO)c1ccc(C#Cc2ccc(CNCC3CCCO3)cc2)cc1` (stereo partly shown) [Compound 162] displayed an MIC MH 6374 of 12.5 µg/mL (≈ 28.6 µM).

In a further assay the test system is Mannheimia haemolytica MH 10720 (154, BRD field isolate). Nature of the assay: MIC, broth-microdilution (CLSI VET01-A4), strain MH 10720. In kind it is cell-based. Particulars: Mannheimia haemolytica strain MH 10720, broth-microdilution; unit assumed. The procedure, abridged: as §1
(Broth dilution looks for growth in wells or tubes with falling amounts of substance.)
For the compound `CC(C)(O)[C@H](NC(=O)c1ccc(C#Cc2ccc(CNCc3ccco3)s2)cc1)C(=O)NO` [Compound 298], the MIC MH 10720 was not above 0.1 µg/mL.

`CC(C)([C@H](NC(=O)c1ccc(C#Cc2ccc(CNCc3nccs3)cc2)cc1)C(=O)NO)S(C)(=O)=O` [C.274] had an MIC MH 10720 not above 0.1 µg/mL.

Turning to `COc1ccc(CNCc2ccc(C#Cc3ccc(C(=O)N[C@H](C(=O)NO)C(C)(C)SC)cc3)cc2)cc1` [Compound 240], the MIC MH 10720 came out at 0.4 µg/mL (≈ 0.752 µM).

In turn, `O=C(N[C@@H](CO)C(=O)NO)c1ccc(C#Cc2ccc(CNCC3CCCO3)cc2)cc1` (stereo partly shown) [Compound 162] showed an MIC MH 10720 of 3.1 µg/mL (≈ 7.09 µM).

In the next assay the test system is Mannheimia haemolytica MH 12587 (1071, BRD field isolate, macrolide-resistance: erm+, E+). The experiment in a line: MIC, broth-microdilution (CLSI VET01-A4), strain MH 12587. Type of assay: cell-based. To be noted: Mannheimia haemolytica strain MH 12587, broth-microdilution; unit assumed. A digest of the protocol: as §1
`CC(C)(O)[C@H](NC(=O)c1ccc(C#Cc2ccc(CNCc3ccco3)s2)cc1)C(=O)NO` [Compound 298] showed an MIC MH 12587 of 0.4 µg/mL (≈ 0.856 µM).

Take `CC(C)([C@H](NC(=O)c1ccc(C#Cc2ccc(CNCc3nccs3)cc2)cc1)C(=O)NO)S(C)(=O)=O` [C.274]: the MIC MH 12587 was 0.4 µg/mL (≈ 0.74 µM).

For `COc1ccc(CNCc2ccc(C#Cc3ccc(C(=O)N[C@H](C(=O)NO)C(C)(C)SC)cc3)cc2)cc1` [Compound 240], the MIC MH 12587 was 1.6 µg/mL (≈ 3.01 µM).

As for `O=C(N[C@@H](CO)C(=O)NO)c1ccc(C#Cc2ccc(CNCC3CCCO3)cc2)cc1` (stereo partly shown) [Compound 162], the MIC MH 12587 is 12.5 µg/mL (≈ 28.6 µM).

A further assay deals with Mannheimia haemolytica MH 13065 (XB0446-6003.9, BRD field isolate). Nature of the assay: MIC, broth-microdilution (CLSI VET01-A4), strain MH 13065. In kind it is cell-based. Particulars: Mannheimia haemolytica strain MH 13065, broth-microdilution; unit assumed. The procedure, abridged: as §1
For `CC(C)(O)[C@H](NC(=O)c1ccc(C#Cc2ccc(CNCc3ccco3)s2)cc1)C(=O)NO` [Compound 298], the MIC MH 13065 stood at 0.2 µg/mL (≈ 0.428 µM).

`CC(C)([C@H](NC(=O)c1ccc(C#Cc2ccc(CNCc3nccs3)cc2)cc1)C(=O)NO)S(C)(=O)=O` [C.274] had an MIC MH 13065 of 0.2 µg/mL (≈ 0.37 µM).

Take `COc1ccc(CNCc2ccc(C#Cc3ccc(C(=O)N[C@H](C(=O)NO)C(C)(C)SC)cc3)cc2)cc1` [Compound 240]: the MIC MH 13065 came to 1.6 µg/mL (≈ 3.01 µM).

`O=C(N[C@@H](CO)C(=O)NO)c1ccc(C#Cc2ccc(CNCC3CCCO3)cc2)cc1` (stereo partly shown) [Compound 162] gave an MIC MH 13065 of 12.5 µg/mL (≈ 28.6 µM).

For a further assay, the system named is Mannheimia haemolytica MH 13093 (XB0472-6014.1, BRD field isolate). The experiment in a line: MIC, broth-microdilution (CLSI VET01-A4), strain MH 13093. Type of assay: cell-based. To be noted: Mannheimia haemolytica strain MH 13093, broth-microdilution; unit assumed. A digest of the protocol:
as §1
As for `CC(C)(O)[C@H](NC(=O)c1ccc(C#Cc2ccc(CNCc3ccco3)s2)cc1)C(=O)NO` [Compound 298], the MIC MH 13093 stood at 0.4 µg/mL (≈ 0.856 µM).

Take `CC(C)([C@H](NC(=O)c1ccc(C#Cc2ccc(CNCc3nccs3)cc2)cc1)C(=O)NO)S(C)(=O)=O` [C.274]: the MIC MH 13093 was found to be 0.2 µg/mL (≈ 0.37 µM).

The compound `COc1ccc(CNCc2ccc(C#Cc3ccc(C(=O)N[C@H](C(=O)NO)C(C)(C)SC)cc3)cc2)cc1` [Compound 240] yielded an MIC MH 13093 of 1.6 µg/mL (≈ 3.01 µM).

As for `O=C(N[C@@H](CO)C(=O)NO)c1ccc(C#Cc2ccc(CNCC3CCCO3)cc2)cc1` (stereo partly shown) [Compound 162], the MIC MH 13093 was 12.5 µg/mL (≈ 28.6 µM).

Another assay has as its system Pasteurella multocida PM 6267 (P 2225 (L386), reference strain, mouse infection strain). Nature of the assay: MIC, broth-microdilution (CLSI VET01-A4), strain PM 6267. Type of assay: cell-based. To be noted: Pasteurella multocida strain PM 6267, broth-microdilution; unit assumed. A digest of the protocol: as §1
Turning to `CC(C)(O)[C@H](NC(=O)c1ccc(C#Cc2ccc(CNCc3ccco3)s2)cc1)C(=O)NO` [Compound 298], the MIC PM 6267 was 0.4 µg/mL (≈ 0.856 µM).

For `CC(C)([C@H](NC(=O)c1ccc(C#Cc2ccc(CNCc3nccs3)cc2)cc1)C(=O)NO)S(C)(=O)=O` [C.274], the MIC PM 6267 was not above 0.1 µg/mL.

As to `COc1ccc(CNCc2ccc(C#Cc3ccc(C(=O)N[C@H](C(=O)NO)C(C)(C)SC)cc3)cc2)cc1` [Compound 240], the MIC PM 6267 was 0.2 µg/mL (≈ 0.376 µM).

For the compound `O=C(N[C@@H](CO)C(=O)NO)c1ccc(C#Cc2ccc(CNCC3CCCO3)cc2)cc1` (stereo partly shown) [Compound 162], the MIC PM 6267 was determined as 0.8 µg/mL (≈ 1.83 µM).

The test system of a further assay is Pasteurella multocida PM 6391 (ATCC 43137, reference strain). Nature of the assay: MIC, broth-microdilution (CLSI VET01-A4), strain PM 6391. Type of assay: cell-based. To be noted: Pasteurella multocida strain PM 6391, broth-microdilution; unit assumed. A digest of the protocol: as §1
As for `CC(C)(O)[C@H](NC(=O)c1ccc(C#Cc2ccc(CNCc3ccco3)s2)cc1)C(=O)NO` [Compound 298], the MIC PM 6391 was not above 0.1 µg/mL.

In turn, `CC(C)([C@H](NC(=O)c1ccc(C#Cc2ccc(CNCc3nccs3)cc2)cc1)C(=O)NO)S(C)(=O)=O` [C.274] gave an MIC PM 6391 not above 0.1 µg/mL.

`COc1ccc(CNCc2ccc(C#Cc3ccc(C(=O)N[C@H](C(=O)NO)C(C)(C)SC)cc3)cc2)cc1` [Compound 240] displayed an MIC PM 6391 of 0.8 µg/mL (≈ 1.5 µM).

`O=C(N[C@@H](CO)C(=O)NO)c1ccc(C#Cc2ccc(CNCC3CCCO3)cc2)cc1` (stereo partly shown) [Compound 162] came in with an MIC PM 6391 of 3.1 µg/mL (≈ 7.09 µM).

The next assay concerns Pasteurella multocida PM 10775 (080130003051, BRD field isolate). Nature of the assay: MIC, broth-microdilution (CLSI VET01-A4), strain PM 10775. Type of assay: cell-based. To be noted: Pasteurella multocida strain PM 10775, broth-microdilution; unit assumed. The procedure, abridged: as §1
In turn, `CC(C)(O)[C@H](NC(=O)c1ccc(C#Cc2ccc(CNCc3ccco3)s2)cc1)C(=O)NO` [Compound 298] gave an MIC PM 10775 not above 0.1 µg/mL.

Take `CC(C)([C@H](NC(=O)c1ccc(C#Cc2ccc(CNCc3nccs3)cc2)cc1)C(=O)NO)S(C)(=O)=O` [C.274]: the MIC PM 10775 was not above 0.1 µg/mL.

Consider `COc1ccc(CNCc2ccc(C#Cc3ccc(C(=O)N[C@H](C(=O)NO)C(C)(C)SC)cc3)cc2)cc1` [Compound 240], for which the MIC PM 10775 turned out to be 0.2 µg/mL (≈ 0.376 µM).

Consider `O=C(N[C@@H](CO)C(=O)NO)c1ccc(C#Cc2ccc(CNCC3CCCO3)cc2)cc1` (stereo partly shown) [Compound 162], for which the MIC PM 10775 was not above 0.1 µg/mL.

In another assay the test system is Pasteurella multocida PM 12080 (IV102277-0093, BRD field isolate). The experiment in a line: MIC, broth-microdilution (CLSI VET01-A4), strain PM 12080. In kind it is cell-based. Particulars: Pasteurella multocida strain PM 12080, broth-microdilution; unit assumed. The procedure, abridged:
as §1
`CC(C)(O)[C@H](NC(=O)c1ccc(C#Cc2ccc(CNCc3ccco3)s2)cc1)C(=O)NO` [Compound 298]: the MIC PM 12080 was not above 0.1 µg/mL.

Take `CC(C)([C@H](NC(=O)c1ccc(C#Cc2ccc(CNCc3nccs3)cc2)cc1)C(=O)NO)S(C)(=O)=O` [C.274]: the MIC PM 12080 was not above 0.1 µg/mL.

Compound `COc1ccc(CNCc2ccc(C#Cc3ccc(C(=O)N[C@H](C(=O)NO)C(C)(C)SC)cc3)cc2)cc1` [Compound 240] gave an MIC PM 12080 of 0.4 µg/mL (≈ 0.752 µM).

`O=C(N[C@@H](CO)C(=O)NO)c1ccc(C#Cc2ccc(CNCC3CCCO3)cc2)cc1` (stereo partly shown) [Compound 162]: the MIC PM 12080 stood at 1.6 µg/mL (≈ 3.66 µM).
